Assay: Granulometry: particle size by laser diffraction (HELOS SYMPATEC granulometer)
Type: physicochemical
Settings: after sieving on a 500 μm grid
Description: The size of the particles is determined by laser diffraction using a HELOS SYMPATEC® model granulometer.

diameter of 10% of the particles (10% of the particles below this diameter): < 77 microns
diameter of 50% of the particles (50% of the particles below this diameter): < 107 microns
diameter of 90% of the particles (90% of the particles below this diameter): < 166 microns
SMILES: CC[C@H]1OC(=O)[C@H](C)C(=O)[C@H](C)[C@@H](O[C@@H]2O[C@H](C)C[C@H](N(C)C)[C@H]2O)[C@](C)(O)C[C@@H](C)C(=O)[C@H](C)[C@H]2N(CCCCn3cnc(-c4cccnc4)c3)C(=O)O[C@]12C [spherical agglomerates of telithromycin, 11,12-dideoxy-3-de((2,6-dideoxy-3-C-methyl-3-O-methyl-alpha-L-ribohexopyranosyl)oxy)-6-O-methyl-3-oxo-12,11-(oxycarbonyl((4-(4-(3-pyridinyl)-1H-imidazol-1-yl)butyl)imino))-erythromycin]
